Results published in ChEMBL document CHEMBL1136541, “D-Phe-Pro-Arg type thrombin inhibitors: unexpected selectivity by modification of the P1 moiety” (Bioorg Med Chem Lett, 2003).

Biological target: T1, Serine protease 1 (Bos taurus, UniProt P00760)
T1 sequence (P00760 whole entry): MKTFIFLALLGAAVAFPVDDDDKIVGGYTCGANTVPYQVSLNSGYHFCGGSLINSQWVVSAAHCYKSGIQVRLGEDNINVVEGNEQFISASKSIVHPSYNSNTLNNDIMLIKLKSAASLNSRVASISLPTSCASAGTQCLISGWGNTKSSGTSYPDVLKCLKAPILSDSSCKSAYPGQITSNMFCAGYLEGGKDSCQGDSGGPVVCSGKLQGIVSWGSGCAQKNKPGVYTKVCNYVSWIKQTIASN
Assay: In vitro inhibitory activity against trypsin

Row | SMILES | IC50
1 | Cn1c(CNC(=O)[C@@H]2C=CCN2C(=O)[C@@H](CC2CCCCC2)NCC(=O)O)ccc1C(=N)N | 16 nM
2 | Cn1cc(CNC(=O)[C@@H]2C=CCN2C(=O)[C@@H](CC2CCCCC2)NCC(=O)O)cc1C(=N)N | 306 nM
